The subject of series [1] is purified influenza virus A/WSN/33. The conditions noted are these: PGG 25 μM; TritonX-100 0.5% (v/v).
Series [2] shares this test system. The experiment in a line: Atomic force microscopy (AFM) of virus particles. The conditions noted are these: 50 μM; for aggregation of viral particles (AFM images): 1 hour on ice; for heights of virions (AFM): versus DMSO-treated virions.
The next series deals with A/WSN/33 (H1N1). Nature of the series: Hemagglutination inhibition assay with chicken red blood cells. The conditions noted are these: Influenza A virus, Erythrocyte, in Gallus gallus, read-out: EC50, inhibition of virus-induced hemagglutination.
In another series the test system is influenza virus A/WSN/33. The experiment in a line: Immunofluorescence microscopy of intra-nuclear nucleoprotein accumulation (virus entry) in MDCK cells. The series is classed as cell-based.
A further series relates to influenza virus. Further details: method as in PMID 21479599, PMID 19575286. The following applies: ref [29], [30]; read-out: active concentration EC50 (anti-influenza virus activity); cited from earlier work.
In series [3] the target is hemagglutinin derived from influenza A/California/04/2009(H1N1) (Influenza A virus, UniProt C3W5S1). The experiment in a line: Competition binding assay with sialic acid (native PAGE band gray scale). The series is classed as biochemical. The conditions noted are these: for HA aggregation (decrease of relative density of HA monomer) / HA aggregation (decrease of relative density of HA monomer), percent: 6 μM PGG; for hemagglutinin aggregation (native PAGE lane): 600 μM SA alone (Lane 2), 6 μM PGG alone (Lane 3).
hemagglutinin derived from influenza A/California/04/2009(H1N1), sequence (C3W5S1 entry or part of it, added parts left off): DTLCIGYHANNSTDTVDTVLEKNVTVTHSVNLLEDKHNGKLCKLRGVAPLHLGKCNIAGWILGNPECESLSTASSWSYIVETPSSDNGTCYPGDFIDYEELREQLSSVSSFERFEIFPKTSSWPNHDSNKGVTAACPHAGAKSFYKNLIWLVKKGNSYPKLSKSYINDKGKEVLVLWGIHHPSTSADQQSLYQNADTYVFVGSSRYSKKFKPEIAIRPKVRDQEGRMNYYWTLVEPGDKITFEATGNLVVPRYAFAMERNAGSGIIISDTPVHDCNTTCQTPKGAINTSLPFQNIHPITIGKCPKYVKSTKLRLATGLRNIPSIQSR

For the next series, the system named is MDCK cells. Set-up: method as in PMID 21479599, PMID 19575286. The following applies: ref [29], [30], read-out: cytotoxicity EC50; cited from earlier work.
Series [4] concerns hemagglutinin of A/Puerto Rico/8/1934 (H1N1), A/California/04/2009 (H1N1), A/Netherlands/219/03 (H7N7), and A/Anhui/1/2005 (H5N1). The series is classed as binding, influenza A virus. The conditions noted are these: four HA subtypes.
In series [5] the test system is recombinant HA of A/Puerto Rico/8/1934 (H1N1), A/California/04/2009 (H1N1), A/Netherlands/219/03 (H7N7), and A/Anhui/1/2005 (H5N1). The series is classed as biochemical, influenza A virus. The following applies: HA incubated on ice 30 min with compound; four HA subtypes.

For the compound TritonX-100 [reference compound], in series [1], the “membrane structures of the virus particles (TEM)” value is “destroyed membrane structures”.
As to `O=C(OC[C@H]1O[C@@H](OC(=O)c2cc(O)c(O)c(O)c2)[C@H](OC(=O)c2cc(O)c(O)c(O)c2)[C@@H](OC(=O)c2cc(O)c(O)c(O)c2)[C@@H]1O)c1cc(O)c(O)c(O)c1` [TGG, 1,2,3,6-Tetra-O-galloyl-beta-D-glucose], in [2], the “aggregation of viral particles (AFM images)” value (“aggregation of viral particles” below) is “significantly aggregated” and the “heights of virions (AFM)” value is on record as “significantly greater than that of DMSO-treated virions”. Moreover, the EC50 in the series on A/WSN/33 (H1N1) was found to be 1 ± 1 nM. In addition, in the series with influenza virus A/WSN/33, the “intra-nuclear accumulation of virus nucleoprotein (NP), virus entry” value (“intra-nuclear accumulation” below) is “significantly decreased in the number of nucleoprotein-positive nucleus”.
For the compound `O=C(OC[C@H]1O[C@@H](OC(=O)c2cc(O)c(O)c(O)c2)[C@H](OC(=O)c2cc(O)c(O)c(O)c2)[C@@H](OC(=O)c2cc(O)c(O)c(O)c2)[C@@H]1OC(=O)c1cc(O)c(O)c(O)c1)c1cc(O)c(O)c(O)c1` [PGG, penta-galloyl-glucose], the EC50 with influenza virus is 2510 ± 310 nM; in the series with A/WSN/33 (H1N1) it was 5 ± 2 nM; in the series on MDCK cells it was 31500 ± 4600 nM. In addition, the “aggregation of viral particles” value in series [2] is listed as “significantly aggregated”. In series [2], the “heights of virions (AFM)” value is on record as “significantly greater than that of DMSO-treated virions”. Besides, in [1], the “membrane structures of the virus particles (TEM)” value is listed as “remain undisrupted”. In addition, the “intra-nuclear accumulation” value in the series with influenza virus A/WSN/33 is “significantly decreased in the number of nucleoprotein-positive nucleus”. The “HA aggregation (decrease of relative density of HA monomer)” value in [3] (with the presence of 600 μM SA) is 0.22; in [3] (without SA) it was 0.33. Also, the “HA aggregation (decrease of relative density of HA monomer), percent” value in series [3] (with the presence of 600 μM SA) is reported as 20.7%; in series [3] (without SA), 33.2%. Besides, in series [3], the “hemagglutinin aggregation (native PAGE lane)” value is on record as “increases hemagglutinin aggregation”.
Take `O=C(O)c1cc(O)c(O)c(O)c1` [GA, Gallic acid]: in [4], the “interactions with HAs (SPR)” value is given as “No significant interactions”. In [2], the “aggregation of viral particles” value is reported as “dispersive”. Also, in the series with A/WSN/33 (H1N1), the EC50 is greater than 50000 nM. Further, the “HA aggregation on native PAGE (HA polymer formation)” value in series [5] is reported as “not observed”. Further, the “intra-nuclear accumulation” value with influenza virus A/WSN/33 is on record as “viral NP was detected in the nucleus”.
For `CC(=O)N[C@H]1[C@H]([C@H](O)[C@H](O)CO)OC(O)(C(=O)O)C[C@@H]1O` (stereo partly shown) [SA, Sialic acid, reference compound], in series [3], the “hemagglutinin aggregation (native PAGE lane)” value is on record as “reduces hemagglutinin aggregation”.
In the case of `O=C(O[C@@H]1Cc2c(O)cc(O)cc2O[C@@H]1c1cc(O)c(O)c(O)c1)c1cc(O)c(O)c(O)c1` [EGCG, (−)-epigallocatechin-3-gallate], the EC50 in the series on A/WSN/33 (H1N1) was 430 ± 1 nM.
Take `O=c1oc2c(O)c(O)cc3c(=O)oc4c(O)c(O)cc1c4c23` [EA, Ellagic acid]: in the series on A/WSN/33 (H1N1), the EC50 came to 446 nM.

(Values after PMC3981784 (PLoS ONE, 2014).)
